Test results: patent US20100239669A1, “Combinations of statins and anti-obesity agent” (Scidose LLC, priority 2007, published 2010)

Assay: Patient on atorvastatin with orlistat added (co-therapy)
Format: in vivo, human
Description: A patient on atorvastatin 80 mg once daily is found to still be in need of reducing weight, triglyceride, and cholesterol levels further. […] The patient is maintained on this regimen for 2 months and thereafter the atorvastatin dosage is reduced to 60 mg once daily at which the reductions previously obtained are maintained. The patient is then switched to a fixed combination dosage form of 120 mg orlistat and 60 mg atorvastatin once daily. A patient on atorvastatin 10 mg once daily is found to be in need of weight reduction and triglyceride reduction, although cholesterol levels are adequately maintained by the atorvastatin. Orlistat 120 mg once daily is added to the regimen and each of weight, triglycerides and cholesterol drop. […] The patient is then changed to a fixed combination of 120 mg orlistat and 5 mg of atorvastatin.

CCCCCCCCCCC[C@@H](C[C@@H]1OC(=O)[C@H]1CCCCCC)OC(=O)[C@H](CC(C)C)NC=O [orlistat, N-formyl-L-leucine ester of (3S,4S)-3-hexyl-4-[(2S)-2-hydroxytridecyl]-2-oxetanone]
weight, serum triglycerides, and cholesterol (Example 1: 120 mg once daily orlistat added to atorvastatin 80 mg once daily): begins to lower
reductions previously obtained (weight, triglycerides, cholesterol) (Example 1: after 2 months atorvastatin reduced to 60 mg once daily, orlistat 120 mg once daily): maintained
lowered weight, triglycerides, and cholesterol levels (Example 2: after 6 weeks, 120 mg orlistat once daily and 5 mg atorvastatin once daily): surprisingly maintains
weight, triglycerides and cholesterol (Example 2: orlistat 120 mg once daily added to atorvastatin 10 mg once daily): drop
